# From ChEMBL document CHEMBL3132769, “Fragment growing to retain or alter the selectivity of anchored kinase hinge-binding fragments” (Medchemcomm, 2014)
# Key:
# [1] = biological target: T1, Interleukin-1 receptor-associated kinase 4 (Homo sapiens) (UniProt Q9NWZ3); test: Inhibition of human IRAK4 catalytic domain expressed in baculovirus assessed as substrate phosphorylation using fluorescence-labelled peptides as substrate at 70 uM after 90 mins by microfluidic peptide phosphorylation assay
# T1 sequence (whole entry): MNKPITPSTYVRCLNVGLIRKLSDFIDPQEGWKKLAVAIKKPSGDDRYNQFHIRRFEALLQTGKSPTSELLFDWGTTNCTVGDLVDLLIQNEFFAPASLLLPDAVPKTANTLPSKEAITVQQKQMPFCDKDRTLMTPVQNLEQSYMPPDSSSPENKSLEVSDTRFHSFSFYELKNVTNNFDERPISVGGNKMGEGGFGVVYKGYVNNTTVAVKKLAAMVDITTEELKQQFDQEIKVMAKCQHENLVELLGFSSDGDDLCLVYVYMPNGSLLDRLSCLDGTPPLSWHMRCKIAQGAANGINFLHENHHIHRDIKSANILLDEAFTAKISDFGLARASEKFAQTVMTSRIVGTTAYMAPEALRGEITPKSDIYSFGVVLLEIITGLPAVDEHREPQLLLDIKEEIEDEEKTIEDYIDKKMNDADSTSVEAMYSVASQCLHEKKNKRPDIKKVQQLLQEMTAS
# [2] = biological target: T2, MAP kinase-activated protein kinase 5 (Homo sapiens) (UniProt Q8IW41); test: Inhibition of human full length PRAK expressed in baculovirus assessed as substrate phosphorylation using fluorescence-labelled peptides as substrate at 70 uM after 90 mins by microfluidic peptide phosphorylation assay
# T2 sequence (whole entry): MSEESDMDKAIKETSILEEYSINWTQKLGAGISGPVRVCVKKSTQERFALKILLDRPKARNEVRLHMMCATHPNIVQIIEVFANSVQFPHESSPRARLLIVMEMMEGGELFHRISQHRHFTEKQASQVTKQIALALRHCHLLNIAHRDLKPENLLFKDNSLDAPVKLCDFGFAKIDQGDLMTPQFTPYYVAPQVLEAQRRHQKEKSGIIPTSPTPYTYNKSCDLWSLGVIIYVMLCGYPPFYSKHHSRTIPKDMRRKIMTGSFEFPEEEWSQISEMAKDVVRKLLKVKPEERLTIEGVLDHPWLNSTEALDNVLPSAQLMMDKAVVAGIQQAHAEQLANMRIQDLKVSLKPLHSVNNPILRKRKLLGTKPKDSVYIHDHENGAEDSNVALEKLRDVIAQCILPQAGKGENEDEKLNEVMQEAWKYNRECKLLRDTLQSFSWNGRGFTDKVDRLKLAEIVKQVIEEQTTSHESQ
# [3] = biological target: Platelet-derived growth factor receptor alpha (Homo sapiens) (UniProt P16234); test: Inhibition of human PDGFR alpha catalytic domain expressed in baculovirus assessed as substrate phosphorylation using fluorescence-labelled peptides as substrate at 420 uM after 90 mins by microfluidic peptide phosphorylation assay
# Chain of Platelet-derived growth factor receptor alpha (Homo sapiens) (P16234 whole entry, the tested form may be a part): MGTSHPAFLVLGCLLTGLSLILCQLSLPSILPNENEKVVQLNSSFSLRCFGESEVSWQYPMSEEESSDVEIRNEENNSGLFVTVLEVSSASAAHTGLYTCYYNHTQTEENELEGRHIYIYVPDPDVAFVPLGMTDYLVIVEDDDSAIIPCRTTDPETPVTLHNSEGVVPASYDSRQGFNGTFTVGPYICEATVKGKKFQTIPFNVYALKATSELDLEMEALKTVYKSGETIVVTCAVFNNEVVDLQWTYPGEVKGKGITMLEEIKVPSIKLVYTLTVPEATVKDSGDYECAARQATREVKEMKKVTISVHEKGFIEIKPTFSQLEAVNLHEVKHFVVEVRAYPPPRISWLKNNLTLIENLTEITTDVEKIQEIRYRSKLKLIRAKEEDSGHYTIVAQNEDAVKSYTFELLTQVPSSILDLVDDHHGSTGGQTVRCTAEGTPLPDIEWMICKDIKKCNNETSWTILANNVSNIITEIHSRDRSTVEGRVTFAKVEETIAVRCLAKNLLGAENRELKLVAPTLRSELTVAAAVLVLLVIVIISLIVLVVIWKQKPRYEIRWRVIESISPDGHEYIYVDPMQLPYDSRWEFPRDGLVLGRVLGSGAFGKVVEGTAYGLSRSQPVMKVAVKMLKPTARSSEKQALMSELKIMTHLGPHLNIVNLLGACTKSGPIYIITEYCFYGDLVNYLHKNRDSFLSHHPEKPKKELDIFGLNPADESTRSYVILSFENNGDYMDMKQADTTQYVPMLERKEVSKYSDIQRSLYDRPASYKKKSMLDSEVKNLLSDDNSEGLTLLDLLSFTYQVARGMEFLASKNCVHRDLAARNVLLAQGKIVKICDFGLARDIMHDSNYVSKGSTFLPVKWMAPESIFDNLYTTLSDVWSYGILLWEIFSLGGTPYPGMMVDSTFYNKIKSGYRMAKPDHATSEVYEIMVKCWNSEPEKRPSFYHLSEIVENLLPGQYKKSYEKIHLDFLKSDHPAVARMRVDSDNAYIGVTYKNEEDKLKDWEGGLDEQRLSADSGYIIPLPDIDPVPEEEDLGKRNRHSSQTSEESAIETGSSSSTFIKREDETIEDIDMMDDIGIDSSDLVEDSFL
# [4] = biological target: T3, Protein kinase C epsilon type (Homo sapiens) (UniProt Q02156); test: Inhibition of human truncated PKC epsilon expressed in baculovirus assessed as substrate phosphorylation using fluorescence-labelled peptides as substrate at 420 uM after 90 mins by microfluidic peptide phosphorylation assay
# T3 sequence (whole entry): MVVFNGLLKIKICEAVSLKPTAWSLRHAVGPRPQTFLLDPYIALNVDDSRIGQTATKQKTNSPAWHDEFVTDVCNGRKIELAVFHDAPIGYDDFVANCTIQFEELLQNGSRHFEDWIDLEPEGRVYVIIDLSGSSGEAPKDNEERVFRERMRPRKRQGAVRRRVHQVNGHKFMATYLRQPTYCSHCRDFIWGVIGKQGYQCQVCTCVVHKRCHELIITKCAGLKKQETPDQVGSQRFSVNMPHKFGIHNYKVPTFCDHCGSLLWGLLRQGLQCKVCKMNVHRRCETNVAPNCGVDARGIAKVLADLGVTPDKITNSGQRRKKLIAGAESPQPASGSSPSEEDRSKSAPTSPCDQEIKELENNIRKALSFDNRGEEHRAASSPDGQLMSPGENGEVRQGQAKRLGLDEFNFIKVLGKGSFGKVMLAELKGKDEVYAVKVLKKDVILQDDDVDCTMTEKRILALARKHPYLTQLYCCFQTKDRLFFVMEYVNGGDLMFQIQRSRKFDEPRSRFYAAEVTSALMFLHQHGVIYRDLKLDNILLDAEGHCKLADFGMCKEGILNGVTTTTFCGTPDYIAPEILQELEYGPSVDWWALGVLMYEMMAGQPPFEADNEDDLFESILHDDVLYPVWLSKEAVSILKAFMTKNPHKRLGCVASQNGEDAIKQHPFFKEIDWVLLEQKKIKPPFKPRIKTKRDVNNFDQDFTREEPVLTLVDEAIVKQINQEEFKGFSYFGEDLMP
# [5] = biological target: Serine/threonine-protein kinase PAK 2 (Homo sapiens) (UniProt Q13177); test: Inhibition of human truncated PAK2 expressed in Escherichia coli cell assessed as substrate phosphorylation using fluorescence-labelled peptides as substrate at 95 uM after 90 mins by microfluidic peptide phosphorylation assay
# Chain of Serine/threonine-protein kinase PAK 2 (Homo sapiens) (Q13177 whole entry, the tested form may be a part): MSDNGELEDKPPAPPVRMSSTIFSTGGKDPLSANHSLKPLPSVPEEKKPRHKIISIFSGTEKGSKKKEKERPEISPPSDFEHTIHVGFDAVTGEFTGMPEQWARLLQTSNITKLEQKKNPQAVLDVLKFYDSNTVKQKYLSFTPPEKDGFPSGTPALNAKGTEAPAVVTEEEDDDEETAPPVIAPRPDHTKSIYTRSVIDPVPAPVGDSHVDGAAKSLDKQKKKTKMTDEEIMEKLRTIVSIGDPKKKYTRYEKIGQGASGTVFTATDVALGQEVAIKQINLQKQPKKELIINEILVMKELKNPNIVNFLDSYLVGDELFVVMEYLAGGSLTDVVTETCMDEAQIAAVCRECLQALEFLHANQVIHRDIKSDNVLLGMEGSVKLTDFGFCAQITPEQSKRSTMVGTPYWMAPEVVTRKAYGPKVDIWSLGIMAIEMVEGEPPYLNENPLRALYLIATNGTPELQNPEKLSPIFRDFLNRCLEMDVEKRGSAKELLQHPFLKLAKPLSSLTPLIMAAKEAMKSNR
# [6] = biological target: T3, Protein kinase C epsilon type (Homo sapiens); test: Inhibition of human truncated PKC epsilon expressed in baculovirus assessed as substrate phosphorylation using fluorescence-labelled peptides as substrate at 9 uM after 90 mins by microfluidic peptide phosphorylation assay
# [7] = biological target: MAP kinase p38 (Homo sapiens) (UniProt O15264+Q15759+Q16539+P53778); test: Inhibition of human full length p38 beta2 expressed in Escherichia coli cell assessed as substrate phosphorylation using fluorescence-labelled peptides as substrate at 1000 uM after 90 mins by microfluidic peptide phosphorylation assay
# [8] = biological target: Tyrosine-protein kinase Fyn (Homo sapiens) (UniProt P06241); test: Inhibition of human full length FYN expressed in baculovirus assessed as substrate phosphorylation using fluorescence-labelled peptides as substrate at 2 uM after 90 mins by microfluidic peptide phosphorylation assay
# Chain of Tyrosine-protein kinase Fyn (Homo sapiens) (P06241 2-537 limits assumed): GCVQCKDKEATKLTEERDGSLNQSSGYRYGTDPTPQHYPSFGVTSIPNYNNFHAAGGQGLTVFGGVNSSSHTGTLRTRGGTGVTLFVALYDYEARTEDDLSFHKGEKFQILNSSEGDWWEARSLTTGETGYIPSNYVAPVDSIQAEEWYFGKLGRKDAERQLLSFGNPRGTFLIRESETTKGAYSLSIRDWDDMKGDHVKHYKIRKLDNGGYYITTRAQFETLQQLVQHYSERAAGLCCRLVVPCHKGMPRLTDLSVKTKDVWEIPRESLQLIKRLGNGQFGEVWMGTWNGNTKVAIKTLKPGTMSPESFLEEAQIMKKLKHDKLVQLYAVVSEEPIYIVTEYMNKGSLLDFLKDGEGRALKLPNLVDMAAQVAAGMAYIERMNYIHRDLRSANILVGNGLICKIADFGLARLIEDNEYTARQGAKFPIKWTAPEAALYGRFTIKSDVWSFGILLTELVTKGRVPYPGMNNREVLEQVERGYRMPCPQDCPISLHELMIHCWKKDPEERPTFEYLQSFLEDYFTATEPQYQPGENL
# [9] = biological target: Protein kinase C beta type (Homo sapiens) (UniProt P05771); test: Inhibition of human full length PKC beta2 expressed in baculovirus assessed as substrate phosphorylation using fluorescence-labelled peptides as substrate at 2 uM after 90 mins by microfluidic peptide phosphorylation assay
# Chain of Protein kinase C beta type (Homo sapiens) (P05771 2-671 limits assumed): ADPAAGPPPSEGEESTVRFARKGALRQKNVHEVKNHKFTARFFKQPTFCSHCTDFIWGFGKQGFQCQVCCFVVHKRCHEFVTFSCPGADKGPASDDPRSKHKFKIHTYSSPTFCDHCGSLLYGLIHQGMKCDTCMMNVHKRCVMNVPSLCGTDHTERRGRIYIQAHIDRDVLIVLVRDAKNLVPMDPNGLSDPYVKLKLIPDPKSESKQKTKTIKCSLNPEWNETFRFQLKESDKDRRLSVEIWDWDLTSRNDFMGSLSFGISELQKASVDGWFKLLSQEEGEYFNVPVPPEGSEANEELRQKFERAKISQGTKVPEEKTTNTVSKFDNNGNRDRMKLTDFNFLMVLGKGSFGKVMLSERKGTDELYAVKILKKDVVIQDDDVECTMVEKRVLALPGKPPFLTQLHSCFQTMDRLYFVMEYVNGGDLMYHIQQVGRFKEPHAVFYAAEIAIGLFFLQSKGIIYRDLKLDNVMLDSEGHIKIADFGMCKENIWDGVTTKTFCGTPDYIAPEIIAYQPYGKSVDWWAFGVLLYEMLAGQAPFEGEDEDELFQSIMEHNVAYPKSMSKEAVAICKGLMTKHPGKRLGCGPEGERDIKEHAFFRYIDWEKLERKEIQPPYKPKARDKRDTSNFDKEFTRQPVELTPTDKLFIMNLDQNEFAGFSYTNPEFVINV
compound,measurement,setting,value
CNCc1ccc(-c2ncnc3[nH]cnc23)cc1,inhibition,[1],15%
same,inhibition,[2],20.5%
c1nc(N2CCOCC2)c2nc[nH]c2n1,inhibition,[3],32.5%
same,inhibition,[4],73.5%
NCCc1ccc(-c2ncnc3[nH]cnc23)cc1,inhibition,[5],57.5%
NCC1CN(c2ncnc3[nH]c4cnccc4c23)CCO1 (centres undefined),inhibition,[6],14.5%
c1cnc2[nH]ccc2c1,inhibition,[7],0%
NC1CCN(c2ncnc3[nH]ccc23)CC1,inhibition,[8],5%
same,inhibition,[9],62.5%
